From patent publication US20250122160A1, “PROTEIN TYROSINE PHOSPHATASE INHIBITORS AND METHODS OF USE THEREOF” (Calico Life Sciences LLC, priority 0001, published 2025)

Assays:
[1] = target: T1, His tagged PTPN2 (TC45) protein (Homo sapiens, UniProt P17706); assay: Mobility shift assay (MSA) to determine potency of PTPN2 inhibitors; assay type: biochemical; settings: 0.5 nM enzyme, 2 μM substrate
T1 construct: made in house
T1 sequence (P17706 with tags, fused parts or gaps isoform P17706-2): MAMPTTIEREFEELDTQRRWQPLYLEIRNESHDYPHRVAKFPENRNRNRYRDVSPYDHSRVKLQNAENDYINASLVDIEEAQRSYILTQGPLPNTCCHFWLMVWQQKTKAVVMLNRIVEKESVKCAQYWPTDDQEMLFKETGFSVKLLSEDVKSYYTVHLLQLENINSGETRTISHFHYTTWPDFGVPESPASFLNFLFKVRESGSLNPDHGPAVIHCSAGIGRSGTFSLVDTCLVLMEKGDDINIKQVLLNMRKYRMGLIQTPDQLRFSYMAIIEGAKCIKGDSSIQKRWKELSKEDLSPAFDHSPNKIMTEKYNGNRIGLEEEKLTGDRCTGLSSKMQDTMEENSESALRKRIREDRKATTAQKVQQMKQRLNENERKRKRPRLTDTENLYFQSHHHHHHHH
How it was run: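 His-tagged human PTPN2 (TC45), 0.5 nM, preincubated 10 min at room temperature with compound (12-point, 1:3 dilutions) in HEPES pH 7.5 buffer with EGTA, EDTA, Tween 20 and DTT. Then 2 μM OG488-labelled phospho-insulin-receptor peptide was added for 10 min and quenched. % conversion was read by mobility shift, and IC50 came from % inhibition.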

[2] = target: T2, His tagged full-length PTPN1 protein (Homo sapiens, UniProt P18031); assay: Mobility shift assay (MSA) to determine potency of PTPN1 inhibitors; assay type: biochemical; settings: 0.5 nM enzyme, 2 μM substrate
T2 construct: made in house
T2 sequence (P18031 with tags, fused parts or gaps): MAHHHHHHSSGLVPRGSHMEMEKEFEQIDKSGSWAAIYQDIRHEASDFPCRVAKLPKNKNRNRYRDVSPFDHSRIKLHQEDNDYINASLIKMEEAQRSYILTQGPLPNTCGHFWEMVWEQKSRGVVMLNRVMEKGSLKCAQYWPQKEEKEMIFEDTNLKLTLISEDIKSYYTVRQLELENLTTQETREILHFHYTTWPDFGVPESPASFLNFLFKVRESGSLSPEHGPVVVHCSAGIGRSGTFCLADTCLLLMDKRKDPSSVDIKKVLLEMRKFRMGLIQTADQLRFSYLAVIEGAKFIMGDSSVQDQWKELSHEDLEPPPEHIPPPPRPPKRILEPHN
How it was run: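 His-tagged full-length human PTPN1 (0.5 nM) preincubated with compound 10 min at room temperature in pH 7.5 HEPES buffer with EGTA, EDTA, Tween 20 and DTT. Dephosphorylation of 2 μM fluorescent phospho-insulin-receptor peptide over 10 min measured by mobility shift. IC50 from % inhibition across a 12-point, 1:3 dilution series.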

COCCCN1CCc2cc(O)c(N3CC(=O)NS3(=O)=O)c(F)c2C1 [Compound 217] was tested, and the IC50 [1] was greater than 100 nM and the IC50 [2] was greater than 100 nM.

O=C1CN(c2c(O)cc3c(c2F)C[C@H](NCc2cnco2)CC3)S(=O)(=O)N1 [Compound 364, 5-[(7R)-1-fluoro-3-hydroxy-7-{[(1,3-oxazol-5-yl)methyl]amino}-5,6,7,8-tetrahydronaphthalen-2-yl]-1λ^6,2,5-thiadiazolidine-1,1,3-trione] showed an IC50 [1] of 10 to 100 nM and an IC50 [2] of 10 to 100 nM.

In the case of O=C1CN(c2c(O)cc3c(c2F)CN(CCCCC(F)(F)F)CC3)S(=O)(=O)N1 [Compound 153, 5-[8-fluoro-6-hydroxy-2-(5,5,5-trifluoropentyl)-1,2,3,4-tetrahydroisoquinolin-7-yl]-1λ^6,2,5-thiadiazolidine-1,1,3-trione], the IC50 [1] is reported as 10 to 100 nM and the IC50 [2] is reported as 10 to 100 nM.

Work on [2H]C1([2H])C(=O)NS(=O)(=O)N1c1c(O)cc2c(c1F)C[C@H](NCCC(C)C)CC2 [Compound 327, 5-{(7R)-1-fluoro-3-hydroxy-7-[(3-methylbutyl)amino]-5,6,7,8-tetrahydronaphthalen-2-yl}(4,4-^2H2)-1λ^6,2,5-thiadiazolidine-1,1,3-trione] yielded an IC50 [1] of less than 1 nM and an IC50 [2] of 1 to 10 nM.

Work on CC(C)CNC(=N)N1CCc2cc(O)c(N3CC(=O)NS3(=O)=O)c(F)c2C1 [Compound 329, 8-fluoro-6-hydroxy-N-(2-methylpropyl)-7-(1,1,4-trioxo-1λ^6,2,5-thiadiazolidin-2-yl)-3,4-dihydroisoquinoline-2(1H)-carboximidamide] yielded an IC50 [1] of 10 to 100 nM and an IC50 [2] of 10 to 100 nM.

For O=C1CN(c2c(O)cc3c(c2F)C[C@H](NCc2ccnnc2)CC3)S(=O)(=O)N1 [Compound 368, 5-[(7R)-1-fluoro-3-hydroxy-7-{[(pyridazin-4-yl)methyl]amino}-5,6,7,8-tetrahydronaphthalen-2-yl]-1λ^6,2,5-thiadiazolidine-1,1,3-trione], the IC50 [1] was 10 to 100 nM and the IC50 [2] was 10 to 100 nM.

Cc1nn(C)c(C)c1CN1CC2(CC(N3CCc4cc(O)c(N5CC(=O)NS5(=O)=O)c(F)c4C3)C2)C1 [Compound 237] showed an IC50 [1] greater than 100 nM and an IC50 [2] greater than 100 nM.

For O=C1CN(c2c(O)cc3c(c2F)CN(C(=O)NCCC2CC2)CC3)S(=O)(=O)N1 [Compound 264], the IC50 [1] was 10 to 100 nM and the IC50 [2] was 10 to 100 nM.

CCCCNCC1CCc2cc(O)c(N3CC(=O)NS3(=O)=O)c(F)c2C1 (centres unmarked) [Compound 396, 5-{7-[(butylamino)methyl]-1-fluoro-3-hydroxy-5,6,7,8-tetrahydronaphthalen-2-yl}-1λ^6,2,5-thiadiazolidine-1,1,3-trione] gave an IC50 [1] of 10 to 100 nM and an IC50 [2] of 10 to 100 nM.

For CC(C)CCN[C@@H]1COc2cc(O)c(N3CC(=O)NS3(=O)=O)c(F)c2C1 [Compound 372, 5-{(3S)-5-fluoro-7-hydroxy-3-[(3-methylbutyl)amino]-3,4-dihydro-2H-1-benzopyran-6-yl}-1λ^6,2,5-thiadiazolidine-1,1,3-trione], the IC50 [1] was 10 to 100 nM and the IC50 [2] was 10 to 100 nM.

Work on O=C1CN(c2c(O)cc3c(c2F)CN(C(=O)NCC2CC(F)(F)C2)CC3)S(=O)(=O)N1 [Compound 262] yielded an IC50 [1] of 10 to 100 nM and an IC50 [2] of 1 to 10 nM.

For COCCCCN1CCc2cc(O)c(N3CC(=O)NS3(=O)=O)c(F)c2C1 [Compound 293], the IC50 [1] was 10 to 100 nM and the IC50 [2] was 10 to 100 nM.

Cc1nn(C)c(C)c1CN1CC(N2CCc3cc(O)c(N4CC(=O)NS4(=O)=O)c(F)c3C2)C1 [Compound 224] showed an IC50 [1] greater than 100 nM and an IC50 [2] of 10 to 100 nM.

Compound O=C1CN(c2c(O)cc3c(c2F)C[C@H](NCCC2CCOCC2)CO3)S(=O)(=O)N1 [Compound 375, 5-[(3S)-5-fluoro-7-hydroxy-3-{[2-(oxan-4-yl)ethyl]amino}-3,4-dihydro-2H-1-benzopyran-6-yl]-1λ^6,2,5-thiadiazolidine-1,1,3-trione] has an IC50 [1] of 10 to 100 nM and an IC50 [2] of 10 to 100 nM.

NCC1(O)CCc2cc(O)c(N3CC(=O)NS3(=O)=O)c(F)c2C1 (centres unmarked) [Compound 337, 5-[7-(aminomethyl)-1-fluoro-3,7-dihydroxy-5,6,7,8-tetrahydronaphthalen-2-yl]-1λ^6,2,5-thiadiazolidine-1,1,3-trione] was tested, and the IC50 [1] was 10 to 100 nM and the IC50 [2] was 10 to 100 nM.

[2H]C1([2H])Cc2cc(O)c(N3CC(=O)NS3(=O)=O)c(F)c2C([2H])([2H])C1([2H])NCCC(C)C (centres unmarked) [Compound 340, 5-{1-fluoro-3-hydroxy-7-[(3-methylbutyl)amino](6,6,7,8,8-^2H5)-5,6,7,8-tetrahydronaphthalen-2-yl}-1λ^6,2,5-thiadiazolidine-1,1,3-trione] gave an IC50 [1] of less than 1 nM and an IC50 [2] of 1 to 10 nM.

O=C1CN(c2c(O)cc3c(c2F)C[C@H](NCC2CCOC2)CC3)S(=O)(=O)N1 (stereo partly drawn) [Compound 361, 5-[(7R)-1-fluoro-3-hydroxy-7-{[(oxolan-3-yl)methyl]amino}-5,6,7,8-tetrahydronaphthalen-2-yl]-1λ^6,2,5-thiadiazolidine-1,1,3-trione] gave an IC50 [1] of 1 to 10 nM and an IC50 [2] of 10 to 100 nM.

CC(C)(CN[C@@H]1CCc2cc(O)c(N3CC(=O)NS3(=O)=O)c(F)c2C1)CN1CCCC1 [Compound 358, 5-[(7R)-7-{[2,2-dimethyl-3-(pyrrolidin-1-yl)propyl]amino}-1-fluoro-3-hydroxy-5,6,7,8-tetrahydronaphthalen-2-yl]-1λ^6,2,5-thiadiazolidine-1,1,3-trione] was tested, and the IC50 [1] was 10 to 100 nM and the IC50 [2] was 10 to 100 nM.

Compound CC(=O)N[C@@H]1CCc2cc(O)c(N3CC(=O)NS3(=O)=O)c(F)c2C1 [Compound 402, N-[(2R)-8-fluoro-6-hydroxy-7-(1,1,4-trioxo-1λ^6,2,5-thiadiazolidin-2-yl)-1,2,3,4-tetrahydronaphthalen-2-yl]acetamide] has an IC50 [1] greater than 100 nM and an IC50 [2] greater than 100 nM.

With O=C1CN(c2c(O)cc3c(c2F)CN(CCCc2ccc(F)cc2)CC3)S(=O)(=O)N1 [Compound 299] the IC50 [1] was 1 to 10 nM and the IC50 [2] was 10 to 100 nM.

Work on O=C1CN(c2c(O)cc3c(c2F)C[C@H](NCCC2CC(F)(F)C2)CC3)S(=O)(=O)N1 [Compound 202] yielded an IC50 [1] of less than 1 nM and an IC50 [2] of 1 to 10 nM.

With O=C1CN(c2c(O)cc3c(c2F)CCCC3)S(=O)(=O)N1 [Compound 108] the IC50 [1] was 10 to 100 nM and the IC50 [2] was 10 to 100 nM.

O=C1CN(c2c(O)cc3c(c2F)CN(C(=O)NCC2CC2)CC3)S(=O)(=O)N1 [Compound 258] gave an IC50 [1] of 1 to 10 nM and an IC50 [2] of 1 to 10 nM.

In the case of CC(C)(C)OC(=O)N1CCC(CN[C@@H]2COc3cc(O)c(N4CC(=O)NS4(=O)=O)c(F)c3C2)CC1 [Compound 384, tert-butyl 4-({[(3S)-5-fluoro-7-hydroxy-6-(1,1,4-trioxo-1λ^6,2,5-thiadiazolidin-2-yl)-3,4-dihydro-2H-1-benzopyran-3-yl]amino}methyl) piperidine-1-carboxylate], the IC50 [1] is reported as 10 to 100 nM and the IC50 [2] is reported as 10 to 100 nM.

Work on O=C1CN(c2c(O)cc3c(c2F)CN(C2CNC2)CC3)S(=O)(=O)N1 [Compound 163] yielded an IC50 [1] of 10 to 100 nM and an IC50 [2] greater than 100 nM.

O=C1CN(c2c(O)cc3c(c2F)CN(c2ccccn2)CC3)S(=O)(=O)N1 [Compound 191] showed an IC50 [1] of 10 to 100 nM and an IC50 [2] of 10 to 100 nM.

O=C1CN(c2c(O)cc3c(c2F)CN(CCCCCC(F)(F)F)CC3)S(=O)(=O)N1 [Compound 161] was tested, and the IC50 [1] was 1 to 10 nM and the IC50 [2] was 10 to 100 nM.

O=C1CN(c2c(O)cc3c(c2F)C(=O)NCC3)S(=O)(=O)N1 [Compound 388, 5-(8-fluoro-6-hydroxy-1-oxo-1,2,3,4-tetrahydroisoquinolin-7-yl)-1λ^6,2,5-thiadiazolidine-1,1,3-trione] showed an IC50 [1] greater than 100 nM and an IC50 [2] greater than 100 nM.

O=C1CN(c2c(O)cc3c(c2F)CN(CCC2CCNCC2)CC3)S(=O)(=O)N1 [Compound 230] was tested, and the IC50 [1] was greater than 100 nM and the IC50 [2] was 10 to 100 nM.

In the case of CC(C)CCC[C@H]1Cc2c(cc(O)c(N3CC(=O)NS3(=O)=O)c2F)CN1 [Compound 325], the IC50 [1] is reported as 1 to 10 nM and the IC50 [2] is reported as 1 to 10 nM.

O=C1CN(c2c(O)cc3c(c2F)CN(CCc2cncnc2)CC3)S(=O)(=O)N1 [Compound 210] gave an IC50 [1] greater than 100 nM and an IC50 [2] of 10 to 100 nM.

Compound O=C1CN(c2c(O)cc3c(c2F)C[C@H](NCCC2CCOC2)CO3)S(=O)(=O)N1 (stereo partly drawn) [Compound 382, 5-[(3S)-5-fluoro-7-hydroxy-3-{[2-(oxolan-3-yl)ethyl]amino}-3,4-dihydro-2H-1-benzopyran-6-yl]-1λ^6,2,5-thiadiazolidine-1,1,3-trione] has an IC50 [1] of 10 to 100 nM and an IC50 [2] of 10 to 100 nM.

O=C1CN(c2c(O)cc3c(c2F)CN(CCC2CC(F)(F)C2)CC3)S(=O)(=O)N1 [Compound 192] showed an IC50 [1] of 10 to 100 nM and an IC50 [2] of 10 to 100 nM.

Compound O=C1CN(c2c(O)cc3c(c2F)CN(C(=O)NCC2CCOCC2)CC3)S(=O)(=O)N1 [Compound 261] has an IC50 [1] of 10 to 100 nM and an IC50 [2] of 10 to 100 nM.
